Molecular target: T1, human TGR5 (h-TGR5) (Homo sapiens, UniProt Q8TDU6)
T1 construct: expressed in transfected cells
T1 sequence (Q8TDU6 1-330): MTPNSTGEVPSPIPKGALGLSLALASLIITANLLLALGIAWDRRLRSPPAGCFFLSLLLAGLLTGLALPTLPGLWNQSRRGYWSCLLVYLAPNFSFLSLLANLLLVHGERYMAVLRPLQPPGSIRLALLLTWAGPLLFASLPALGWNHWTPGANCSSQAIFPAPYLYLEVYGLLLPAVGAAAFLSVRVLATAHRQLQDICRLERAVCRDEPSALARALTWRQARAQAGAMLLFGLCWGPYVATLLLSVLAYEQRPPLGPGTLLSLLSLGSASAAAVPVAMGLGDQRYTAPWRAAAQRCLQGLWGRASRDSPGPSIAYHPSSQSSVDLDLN
Assay: TGR5/CRE-Luciferiase Assay (HEK 293 hTGR5/CRE-Luc cells)
Assay type: cell-based
Settings: HEK 293 hTGR5/CRE-Luc cells, 6 hours incubation, luciferase activity; Table 2; read-out: h-TGR5CRE-Luc EC50 (CRE-Luc)
How it was run: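 HEK293 cells stably carrying hTGR5 and a CRE-luciferase reporter were exposed to serially diluted compounds (diluted in DMEM with 5% DMSO) for 6 h. Cells were then lysed in luciferase buffer, luminescence was read, and EC50 values were derived from dose-response curves.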

EC50 [µM]	Structure (SMILES)
1 to 10	Fc1ccc(-n2c(Cc3ccc(Cl)c(Cl)c3)nnc2SCc2cccc(Cl)c2F)cc1 [Example 2]

Same assay, conditions: h-TGR5 CRE-Luc EC50, Table 1; read-out: CRE-Luc (EC50)

Structure (SMILES)	EC50 [µM]
CC(C)(c1ccc(OCCO)cc1)c1cnc(SCc2c(F)cccc2Cl)n1-c1ccc(F)cc1 [2-[(4-{1-[2-{[(2-chloro-6-fluorophenyl)methyl]thio}-1-(4-fluorophenyl)-1H-imidazol-5-yl]-1-methylethyl}phenyl)oxy]ethanol]	0.1 to 1
CCN(CC)CCOc1cc(-n2c(C(C)(C)c3ccc(Cl)c(Cl)c3)cnc2SCc2c(F)cc(C(=O)O)cc2Cl)ccc1F [3-chloro-4-[({5-[1-(3,4-dichlorophenyl)-1-methylethyl]-1-(3-{[2-(diethylamino)ethyl]oxy}-4-fluorophenyl)-1H-imidazol-2-yl}thio)methyl]-5-fluorobenzoic acid]	0.1 to 1
CC(C)(c1ccc(S(C)(=O)=O)cc1)c1cnc(SCc2c(F)cccc2Cl)n1-c1ccc(F)cc1 [2-{[(2-chloro-6-fluorophenyl)methyl]thio}-1-(4-fluorophenyl)-5-{1-methyl-1-[4-(methylsulfonyl)phenyl]ethyl}-1H-imidazole]	0.1 to 1
CC(C)(c1ccc(F)c(F)c1)c1cnc(SCc2ccc(C(=O)O)cc2F)n1-c1ccc(F)cc1 [4-[({5-[1-(3,4-difluorophenyl)-1-methylethyl]-1-(4-fluorophenyl)-1H-imidazol-2-yl}thio)methyl]-3-fluorobenzoic acid]	0.1 to 1
CC(C)(c1ccc(Cl)c(Cl)c1)c1cnc(S(=O)(=O)Cc2ccc(F)c(Cl)c2)n1-c1ccc(F)cc1 [2-{[(3-chloro-4-fluorophenyl)methyl]sulfonyl}-5-[1-(3,4-dichlorophenyl)-1-methylethyl]-1-(4-fluorophenyl)-1H-imidazole]	0.1 to 1
CC(C)(c1ccc(Cl)c(Cl)c1)c1cnc(CCc2c(F)cc(C(=O)O)cc2Cl)n1-c1ccc(F)cc1 [3-chloro-4-(2-{5-[1-(3,4-dichlorophenyl)-1-methylethyl]-1-(4-fluorophenyl)-1H-imidazol-2-yl}ethyl)-5-fluorobenzoic acid]	0.1 to 1
CC(C)(c1ccc(Cl)c(Cl)c1)c1cnc(S(=O)(=O)Cc2ccc(F)c(F)c2)n1-c1ccc(F)cc1 [5-[1-(3,4-dichlorophenyl)-1-methylethyl]-2-{[(3,4-difluorophenyl)methyl]sulfonyl}-1-(4-fluorophenyl)-1H-imidazole]	0.1 to 1
COC(=O)c1cc(F)c(OCc2ncc(C(C)(C)c3ccc(Cl)c(Cl)c3)n2-c2ccc(F)cc2)c(Cl)c1 [methyl 3-chloro-4-[({5-[1-(3,4-dichlorophenyl)-1-methylethyl]-1-(4-fluorophenyl)-1H-imidazol-2-yl}methyl)oxy]-5-fluorobenzoate]	0.1 to 1
CC(C)(c1ccc(F)c(F)c1)c1cnc(SCc2c(F)cccc2Cl)n1-c1ccc(F)cc1 [2-{[(2-chloro-6-fluorophenyl)methyl]thio}-5-[1-(3,4-difluorophenyl)-1-methylethyl]-1-(4-fluorophenyl)-1H-imidazole]	< 0.1
CC(C)(c1ccc(Cl)c(Cl)c1)c1cnc(SCC2CCN(S(C)(=O)=O)CC2)n1-c1ccc(F)c(F)c1 [4-[({5-[1-(3,4-dichlorophenyl)-1-methylethyl]-1-(3,4-difluorophenyl)-1H-imidazol-2-yl}thio)methyl]-1-(methylsulfonyl)piperidine]	< 0.1
CC(C)(c1ccc(Cl)c(Cl)c1)c1cnc(COc2ccc(C(N)=O)cn2)n1-c1ccc(F)cc1 [6-[({5-[1-(3,4-dichlorophenyl)-1-methylethyl]-1-(4-fluorophenyl)-1H-imidazol-2-yl}methyl)oxy]pyridine-3-carboxamide]	0.1 to 1
CC(C)(c1ccc(Cl)c(Cl)c1)c1cnc(S(=O)(=O)Cc2c(F)cccc2Cl)n1-c1ccc(F)cc1 [2-{[(2-chloro-6-fluorophenyl)methyl]sulfonyl}-5-[1-(3,4-dichlorophenyl)-1-methylethyl]-1-(4-fluorophenyl)-1H-imidazole]	0.1 to 1
CC(C)(c1ccc(Cl)c(Cl)c1)c1cnc(SCc2c(F)cccc2Cl)n1-c1ccc(Cl)c(Cl)c1 [2-{[(2-chloro-6-fluorophenyl)methyl]thio)-1-(3,4-dichlorophenyl)-5-[1-(3,4-dichlorophenyl)-1-methylethyl]-1H-imidazole]	0.1 to 1
CC(C)(c1ccc(Cl)c(Cl)c1)c1cnc(C(F)CC2CCN(S(C)(=O)=O)CC2)n1-c1ccc(F)cc1 (centres unmarked) [4-(2-{5-[1-(3,4-dichlorophenyl)-1-methylethyl]-1-(4-fluorophenyl)-1H-imidazol-2-yl}-2-fluoroethyl)-1-(methylsulfonyl)piperidine]	1 to 10
CC(C)(C)OC(=O)N1CCC(NCc2ncc(C(C)(C)c3ccc(Cl)c(Cl)c3)n2-c2ccc(F)cc2)CC1	1 to 10
COc1cc(-n2c(C(C)(C)c3ccc(Cl)c(OC)c3)cnc2SCc2ccc(S(N)(=O)=O)cc2Cl)ccc1F [3-chloro-4-{[(5-{1-[4-chloro-3-(methyloxy)phenyl]-1-methylethyl}-1-[4-fluoro-3-(methyloxy)phenyl]-1H-imidazol-2-yl)thio]methyl}benzenesulfonamide]	< 0.1
COc1ccc(C(C)(C)c2cnc(CNc3ccc(Cl)c(Cl)c3)n2-c2ccc(F)cc2)cc1OC [N-{[5-{1-[3,4-bis(methyloxy)phenyl]-1-methylethyl}-1-(4-fluorophenyl)-1H-imidazol-2-yl]methyl}-3,4-dichloroaniline]	< 0.1
CC(C)(c1ccc(Cl)c(OCCCO)c1)c1cnc(SCc2c(F)cccc2Cl)n1-c1ccc(F)cc1 [3-[(2-chloro-5-{1-[2-{[(2-chloro-6-fluorophenyl)methyl]thio}-1-(4-fluorophenyl)-1H-imidazol-5-yl]-1-methylethyl}phenyl)oxy]propan-1-ol]	0.1 to 1
CC(C)(c1ccc2c(c1)OCCO2)c1cnc(SCc2ccc(F)cc2Cl)n1-c1ccc(F)cc1 [2-{[(2-chloro-4-fluorophenyl)methyl]thio}-5-[1-(2,3-dihydro-1,4-benzodioxin-6-yl)-1-methylethyl]-1-(4-fluorophenyl)-1H-imidazole]	< 0.1
Fc1ccc(-n2c(C(F)(F)c3ccc(Cl)c(Cl)c3)cnc2SCc2c(F)cccc2Cl)cc1 [2-{[(2-chloro-6-fluorophenyl)methyl]thio}-5-[(3,4-dichlorophenyl)(difluoro)methyl]-1-(4-fluorophenyl)-1H-imidazole]	1 to 10
COc1c(Cl)cc(C(C)(C)c2cnc(SCc3ccc(F)cc3Cl)n2-c2ccc(F)cc2)cc1Cl	< 0.1

More lines, now with the values ahead:

EC50 [µM]	Structure (SMILES)
0.1 to 1	CC(C)(O)c1cc(CSc2ncc(C(C)(C)c3ccc(Cl)c(Cl)c3)n2-c2ccc(F)cc2)ccc1Cl [2-{2-chloro-5-[({5-[1-(3,4-dichlorophenyl)-1-methylethyl]-1-(4-fluorophenyl)-1H-imidazol-2-yl}thio)methyl]phenyl}propan-2-ol]
0.1 to 1	CC(C)(c1ccc(Cl)c(Cl)c1)c1cnc(SCc2ccc(F)cc2C#N)n1-c1ccc(F)cc1 [2-[({5-[1-(3,4-dichlorophenyl)-1-methylethyl]-1-(4-fluorophenyl)-1H-imidazol-2-yl}thio)methyl]-5-fluorobenzonitrile]
0.1 to 1	CC(C)(O)c1cc(CSc2ncc(C(C)(C)c3ccc(Cl)c(Cl)c3)n2-c2ccc(F)cc2)ccc1F [2-{5-[({5-[1-(3,4-dichlorophenyl)-1-methylethyl]-1-(4-fluorophenyl)-1H-imidazol-2-yl}thio)methyl]-2-fluorophenyl}propan-2-ol]
0.1 to 1	CC(C)(c1ccc(Cl)c(Cl)c1)c1cnc(SCc2ccc(F)c(C#N)c2)n1-c1ccc(F)cc1 [5-[({5-[1-(3,4-dichlorophenyl)-1-methylethyl]-1-(4-fluorophenyl)-1H-imidazol-2-yl}thio)methyl]-2-fluorobenzonitrile]
0.1 to 1	CC(C)(c1ccc(Cl)c(Cl)c1)c1cnc(SCc2c(Cl)cccc2C(=O)O)n1-c1ccc(F)cc1 [3-chloro-2-[({5-[1-(3,4-dichlorophenyl)-1-methylethyl]-1-(4-fluorophenyl)-1H-imidazol-2-yl}thio)methyl]benzoic acid]
1 to 10	CC(C)(c1ccc(Cl)c(Cl)c1)c1cnc(SCc2ccc(F)cc2CO)n1-c1ccc(F)cc1 [{2-[({5-[1-(3,4-dichlorophenyl)-1-methylethyl]-1-(4-fluorophenyl)-1H-imidazol-2-yl}thio)methyl]-5-fluorophenyl}methanol]
0.1 to 1	CC(C)(c1ccc(Cl)c(Cl)c1)c1cnc(SCc2ccc(Cl)c(C(=O)O)c2)n1-c1ccc(F)cc1 [2-chloro-5-[({5-[1-(3,4-dichlorophenyl)-1-methylethyl]-1-(4-fluorophenyl)-1H-imidazol-2-yl}thio)methyl]benzoic acid]
0.1 to 1	CC(C)(c1ccc(Cl)c(Cl)c1)c1cnc(SCc2c(Cl)cccc2Cl)n1-c1ccc(F)cc1 [5-[1-(3,4-dichlorophenyl)-1-methylethyl]-2-{[(2,6-dichlorophenyl)methyl]thio}-1-(4-fluorophenyl)-1H-imidazole]
0.1 to 1	CC(C)(c1ccc(Cl)c(Cl)c1)c1cnc(SCc2ccc(F)cc2S(N)(=O)=O)n1-c1ccc(F)cc1 [2-[({5-[1-(3,4-dichlorophenyl)-1-methylethyl]-1-(4-fluorophenyl)-1H-imidazol-2-yl}thio)methyl]-5-fluorobenzenesulfonamide]
1 to 10	CC(c1ncc(C(C)(C)c2ccc(Cl)c(Cl)c2)n1-c1ccc(F)cc1)S(=O)(=O)c1ccc(F)cc1Cl (centres unmarked) [2-{1-[(2-chloro-4-fluorophenyl)sulfonyl]ethyl}-5-[1-(3,4-dichlorophenyl)-1-methylethyl]-1-(4-fluorophenyl)-1H-imidazole]

Source: patent publication US8785488B2 (Exelixis Patent Company LLC, priority 2009, dated 2014)
